A word on the AC50: it is the concentration giving half of the maximal activity seen. For orientation: IC50 means the concentration that gives 50% inhibition.

Common to all, as to type: cell-based
Assay [1] concerns HTT. The assay is described as follows: Splicing assay (RT-qPCR on cell lysates) monitoring HTT splice variants: AJ and CJ mRNA. As to conditions: concentration having 50% response. The method in brief: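 Cell lysates were analysed by RT-qPCR, with ΔCt taken against a housekeeping gene and normalised to DMSO to give RQ by 2^(−ΔΔCt). Assay windows were set at 9 ΔCt for AJ and 3.5 ΔCt for CJ, and 4-parameter fits gave AC50 for the AJ increase and IC50 for the CJ decrease.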

Assay [2] concerns HTT. Description: Gene panel canonical junction qPCR assay, HTT CJ mRNA. As to conditions: Table 9, CJ mRNA decrease, read-out: HTT IC50 (decrease in CJ mRNA levels).
The next assay concerns SMN2. Description: Gene panel canonical junction qPCR assay, SMN2 CJ mRNA. The conditions noted are these: Table 9, CJ mRNA decrease, read-out: SMN2 IC50 (decrease in CJ mRNA levels).
For another assay, the system named is Target C. Description: Gene panel canonical junction qPCR assay, Target C CJ mRNA. The conditions noted are these: Table 9, CJ mRNA decrease, read-out: Target C IC50 (decrease in CJ mRNA levels). For orientation: Real-time PCR tracks product formation cycle by cycle.
The mark [3] stands for this setting: Table 8, decrease in CJ mRNA, read-out: HTT CJ AC50.
Setting [4] is: Table 8, increase in AJ mRNA, read-out: HTT AJ AC50.
The mark [5] stands for this setting: Table 7, decrease in CJ mRNA, read-out: HTT CJ AC50.
[6] abbreviates: Table 7, increase in AJ mRNA, read-out: HTT AJ AC50.

Like-named read-outs stand apart in the source and are kept apart here.

For `CN(c1ccc(-c2ccc(-c3cn[nH]c3)c3ncsc23)nn1)C1CCNCC1` [Compound 222, N-methyl-N-(piperidin-4-yl)-6-[4-(1H-pyrazol-4-yl)-1,3-benzothiazol-7-yl]pyridazin-3-amine], the AC50 in the assay on HTT [1] (setting [3]) and in the assay on HTT [1] (setting [4]) was 1000 to 10000 nM each time. Further, the IC50 with HTT [2] lay in the range of 1000 to 10000 nM; in the assay on SMN2, 100 to 1000 nM; in the assay with Target C, 1000 to 10000 nM.

Turning to `c1nc2c(-c3cn[nH]c3)ccc(-c3ccc(O[C@@H]4C[C@H]5CC[C@@H](C4)N5)nn3)c2s1` [Compound 184], the half-maximal activity concentration (AC50) in the assay on HTT [1] (setting [5]) is less than 500 nM; in the assay with HTT [1] (setting [6]), 500 to 5000 nM; with HTT [1] (setting [3]), 100 to 1000 nM; in the assay with HTT [1] (setting [4]), less than 100 nM. Besides, the concentration for half-maximal inhibition (IC50) with HTT [2] is 100 to 1000 nM; in the assay on SMN2, less than 100 nM; in the assay with Target C it was 100 to 1000 nM.

On to `Cc1[nH]ncc1-c1ccc(-c2ccc(N(C)C3CC(C)(C)NC(C)(C)C3)nn2)c2ncsc12` [Compound 176], for which the concentration at half-maximal activity (AC50) with HTT [1] (setting [3]) was more than 10000 nM; with HTT [1] (setting [4]), 1000 to 10000 nM. Also, the 50% inhibitory concentration (IC50) in the assay on HTT [2], with SMN2 and in the assay with Target C was more than 10000 nM throughout.

For the compound `CN(c1ccc(-c2ccc(-c3cn[nH]c3)c3ncsc23)nn1)[C@@H]1C[C@H]2CCC[C@@H](C1)N2` [Compound 226], the AC50 with HTT [1] (setting [3]) and in the assay on HTT [1] (setting [4]) was less than 100 nM throughout. The 50% inhibitory concentration (IC50) with HTT [2], with SMN2 and in the assay on Target C was less than 100 nM throughout.

`c1nc2c(-c3cn[nH]c3)ccc(-c3ccc(S[C@@H]4C[C@H]5CC[C@@H](C4)N5)nn3)c2s1` [Compound 200, 7-{6-[(exo)-8-azabicyclo[3.2.1]octan-3-ylsulfanyl]pyridazin-3-yl}-4-(1H-pyrazol-4-yl)-1,3-benzothiazole]: the AC50 in the assay with HTT [1] (setting [3]) and with HTT [1] (setting [4]) was more than 10000 nM in each case. Also, the half-maximal inhibitory concentration (IC50) in the assay with HTT [2], with SMN2 and in the assay on Target C was more than 10000 nM in each case.

Regarding `c1nc2c(-c3cn[nH]c3)ccc(-c3ccc(N4CCCC5(CCNC5)C4)nn3)c2s1` (stereo not shown) [Compound 193], the AC50 with HTT [1] (setting [3]) and in the assay with HTT [1] (setting [4]) was more than 10000 nM in each case. Moreover, the half-maximal inhibitory concentration (IC50) with HTT [2], with SMN2 and in the assay on Target C was more than 10000 nM in each case.

In the case of `COc1cc(-c2ccc(-c3ccc(N(C)C4CC(C)(C)NC(C)(C)C4)nn3)c3ncsc23)ccn1` [Compound 177], the AC50 with HTT [1] (setting [3]) and in the assay with HTT [1] (setting [4]) was more than 10000 nM in each case. In addition, the IC50 was more than 10000 nM in the assay with HTT [2], 1000 to 10000 nM in the assay on SMN2 and more than 10000 nM in the assay with Target C.

`c1nc2c(-c3cn[nH]c3)ccc(-c3ccc(N4CCCC5(CNC5)C4)nn3)c2s1` [Compound 189]: the AC50 in the assay on HTT [1] (setting [3]) and in the assay with HTT [1] (setting [4]) was more than 10000 nM throughout. Further, the IC50 with HTT [2], in the assay on SMN2 and in the assay on Target C was more than 10000 nM in each case.

As for `Cc1ncc(-c2ccc(-c3ccc(N(C)C4CC(C)(C)NC(C)(C)C4)nn3)c3ncsc23)o1` [Compound 201], the concentration at half-maximal activity (AC50) with HTT [1] (setting [3]) and in the assay on HTT [1] (setting [4]) was 1000 to 10000 nM in each case. For the same compound, the 50% inhibitory concentration (IC50) in the assay on HTT [2] was 1000 to 10000 nM; in the assay with SMN2, 100 to 1000 nM; in the assay with Target C it was 1000 to 10000 nM.

With `c1nc2c(-c3cn[nH]c3)ccc(-c3ccc(O[C@@H]4C[C@H]5CCC[C@@H](C4)N5)nn3)c2s1` [Compound 209], the AC50 in the assay with HTT [1] (setting [3]) and in the assay with HTT [1] (setting [4]) was more than 10000 nM throughout. Further, the IC50 was more than 10000 nM in the assay on HTT [2], 100 to 1000 nM with SMN2 and more than 10000 nM in the assay with Target C.

For the compound `c1nc2c(-c3cn[nH]c3)ccc(-c3ccc(NC4CNC4)nn3)c2s1` [Compound 196], the concentration at half-maximal activity (AC50) in the assay on HTT [1] (setting [3]) and in the assay with HTT [1] (setting [4]) was more than 10000 nM each time. Moreover, the IC50 in the assay with HTT [2], in the assay on SMN2 and with Target C was more than 10000 nM throughout.

As for `[2H]C([2H])([2H])N(c1ccc(-c2ccc(-c3cn[nH]c3)c3ncsc23)nn1)[C@@H]1C[C@H]2CCC[C@@H](C1)N2` [Compound 227], the AC50 in the assay with HTT [1] (setting [3]) and in the assay with HTT [1] (setting [4]) was less than 100 nM throughout. Also, the IC50 with HTT [2], in the assay on SMN2 and in the assay on Target C was less than 100 nM each time.

On to `CC1(C)CC(Oc2ccc(-c3ccc(-c4cn[nH]c4)c4ncsc34)nn2)CCN1` (stereo not shown) [Compound 182], for which the AC50 with HTT [1] (setting [5]) was less than 500 nM; in the assay with HTT [1] (setting [6]), 500 to 5000 nM; with HTT [1] (setting [3]), 1000 to 10000 nM; with HTT [1] (setting [4]), 1000 to 10000 nM. Further, the concentration for half-maximal inhibition (IC50) in the assay on HTT [2] is 1000 to 10000 nM; with SMN2, 100 to 1000 nM; in the assay with Target C, 1000 to 10000 nM.

Consider `CN(c1ccc(-c2ccc(-c3cnc(=O)[nH]c3)c3scnc23)nn1)C1CC(C)(C)NC(C)(C)C1` [Compound 179], for which the AC50 in the assay on HTT [1] (setting [3]) and in the assay on HTT [1] (setting [4]) was 100 to 1000 nM each time. The half-inhibitory concentration (IC50) in the assay with HTT [2], in the assay on SMN2 and in the assay on Target C was 100 to 1000 nM throughout.

As to `Cn1cc(-c2ccc(-c3ccc(OC4CC(C)(C)NC(C)(C)C4)nn3)c3[nH]ncc23)cn1` [Compound 232, 4-(1-methylpyrazol-4-yl)-7-{6-[(2,2,6,6-tetramethylpiperidin-4-yl)oxy]pyridazin-3-yl}-1H-indazole], the AC50 in the assay on HTT [1] (setting [3]) lay in the range of 1000 to 10000 nM; with HTT [1] (setting [4]), 100 to 1000 nM. In addition, the results for the IC50 with HTT [2], with SMN2 and in the assay with Target C were 1000 to 10000 nM, 100 to 1000 nM and 1000 to 10000 nM, respectively.

Regarding `[2H]C([2H])([2H])N(c1ccc(-c2ccc(-c3cn[nH]c3)c3ncsc23)nn1)[C@@H]1C[C@H]2CC[C@@H](C1)N2` [Compound 210, (exo-)-N-(D3)methyl-N-[6-[4-(1H-pyrazol-4-yl)-1,3-benzothiazol-7-yl]pyridazin-3-yl]-8-azabicyclo [3.2.1]octan-3-amine], the AC50 in the assay on HTT [1] (setting [3]) and in the assay with HTT [1] (setting [4]) was less than 100 nM throughout. Besides, the IC50 with HTT [2], in the assay on SMN2 and in the assay on Target C was less than 100 nM throughout.

For `c1nc2c(-c3cn[nH]c3)ccc(-c3ccc(NC4CCNCC4)nn3)c2s1` [Compound 214, N-(piperidin-4-yl)-6-[4-(1H-pyrazol-4-yl)-1,3-benzothiazol-7-yl]pyridazin-3-amine], the AC50 in the assay with HTT [1] (setting [3]) is more than 10000 nM; in the assay on HTT [1] (setting [4]) it was 1000 to 10000 nM. For the same compound, the IC50 is more than 10000 nM in the assay on HTT [2], 100 to 1000 nM in the assay on SMN2 and more than 10000 nM with Target C.

As for `CC1(C)CC(Oc2ccc(-c3ccc(-c4cn[nH]c4)c4cn[nH]c34)nn2)CCN1` (stereo not shown) [Compound 220], the AC50 was 1000 to 10000 nM in the assay with HTT [1] (setting [3]) and more than 10000 nM in the assay with HTT [1] (setting [4]). The values for the IC50 with HTT [2], in the assay with SMN2 and with Target C were 1000 to 10000 nM, 100 to 1000 nM and more than 10000 nM, respectively.

As to `c1n[nH]cc1-c1ccc(-c2ccc(O[C@@H]3C[C@H]4CCC[C@@H](C3)N4)nn2)c2[nH]ncc12` [Compound 219], the concentration at half-maximal activity (AC50) in the assay on HTT [1] (setting [3]) and with HTT [1] (setting [4]) was 100 to 1000 nM throughout. The values for the IC50 with HTT [2], with SMN2 and in the assay with Target C were 100 to 1000 nM, less than 100 nM and 100 to 1000 nM, respectively.

As for `CCN(c1ccc(-c2ccc(-c3cn[nH]c3)c3ncsc23)nn1)C1CCNCC1` [Compound 224, N-ethyl-N-(piperidin-4-yl)-6-[4-(1H-pyrazol-4-yl)-1,3-benzothiazol-7-yl]pyridazin-3-amine], the AC50 in the assay with HTT [1] (setting [3]) and in the assay with HTT [1] (setting [4]) was more than 10000 nM each time. The IC50 was more than 10000 nM with HTT [2], 1000 to 10000 nM in the assay with SMN2 and more than 10000 nM with Target C.

On to `CCN(c1ccc(-c2ccc(-c3cn[nH]c3)c3ncsc23)nn1)[C@@H]1C[C@H]2CCC[C@@H](C1)N2` [Compound 228], for which the concentration at half-maximal activity (AC50) was less than 100 nM in the assay on HTT [1] (setting [3]) and 100 to 1000 nM in the assay with HTT [1] (setting [4]). In addition, the IC50 in the assay on HTT [2], with SMN2 and in the assay with Target C was less than 100 nM throughout.

Values taken from patent publication US20230140983A1, “PYRIDAZINE DERIVATIVES FOR MODULATING NUCLEIC ACID SPLICING” (REMIX THERAPEUTICS INC., priority 2020, published 2023).
